Assay results as given in patent publication US9085584B2, “Substituted pyrido[3,2-E][1,2,4]-triazolo[4,3-A]pyrazines for the treatment of central nervous system disorders” (Boehringer Ingelheim International GmbH, priority 2012, dated 2015).

Legend:
[1] = Metabolic stability in pooled liver microsomes; format: in vitro ADME, human; details: 1 μM test compound, 37° C.; for Half-life - t½: human liver microsomes
Experimental: The metabolic stability of the compounds according to the invention has been investigated as follows:
The metabolic degradation of the test compound was assayed at 37° C. with pooled liver microsomes from various species. The final incubation volume of 100 μl per time point contains TRIS buffer pH 7.6 at room temperature (0.1 M), magnesium chloride (5 mM), microsomal protein (1 mg/mL for human and dog, 0.5 mg/mL for other species) and the test compound at a final concentration of 1 μM. Following a short preincubation period at 37° C., the reactions were initiated by addition of betanicotinamide adenine dinucleotide phosphate, reduced form (NADPH, 1 mM), and terminated by transferring an aliquot into solvent after different time points. […] The half-life was determined by the slope of the semi-logarithmic plot of the concentration-time profile.

PDE10 = PDE10 (Homo sapiens (Human), UniProt Q9Y233); test: PDE10 assay with fluorescent substrate (IMAP, fluorescence polarization); format: biochemical
Chain of PDE10 (Q9Y233 whole entry, species assumed): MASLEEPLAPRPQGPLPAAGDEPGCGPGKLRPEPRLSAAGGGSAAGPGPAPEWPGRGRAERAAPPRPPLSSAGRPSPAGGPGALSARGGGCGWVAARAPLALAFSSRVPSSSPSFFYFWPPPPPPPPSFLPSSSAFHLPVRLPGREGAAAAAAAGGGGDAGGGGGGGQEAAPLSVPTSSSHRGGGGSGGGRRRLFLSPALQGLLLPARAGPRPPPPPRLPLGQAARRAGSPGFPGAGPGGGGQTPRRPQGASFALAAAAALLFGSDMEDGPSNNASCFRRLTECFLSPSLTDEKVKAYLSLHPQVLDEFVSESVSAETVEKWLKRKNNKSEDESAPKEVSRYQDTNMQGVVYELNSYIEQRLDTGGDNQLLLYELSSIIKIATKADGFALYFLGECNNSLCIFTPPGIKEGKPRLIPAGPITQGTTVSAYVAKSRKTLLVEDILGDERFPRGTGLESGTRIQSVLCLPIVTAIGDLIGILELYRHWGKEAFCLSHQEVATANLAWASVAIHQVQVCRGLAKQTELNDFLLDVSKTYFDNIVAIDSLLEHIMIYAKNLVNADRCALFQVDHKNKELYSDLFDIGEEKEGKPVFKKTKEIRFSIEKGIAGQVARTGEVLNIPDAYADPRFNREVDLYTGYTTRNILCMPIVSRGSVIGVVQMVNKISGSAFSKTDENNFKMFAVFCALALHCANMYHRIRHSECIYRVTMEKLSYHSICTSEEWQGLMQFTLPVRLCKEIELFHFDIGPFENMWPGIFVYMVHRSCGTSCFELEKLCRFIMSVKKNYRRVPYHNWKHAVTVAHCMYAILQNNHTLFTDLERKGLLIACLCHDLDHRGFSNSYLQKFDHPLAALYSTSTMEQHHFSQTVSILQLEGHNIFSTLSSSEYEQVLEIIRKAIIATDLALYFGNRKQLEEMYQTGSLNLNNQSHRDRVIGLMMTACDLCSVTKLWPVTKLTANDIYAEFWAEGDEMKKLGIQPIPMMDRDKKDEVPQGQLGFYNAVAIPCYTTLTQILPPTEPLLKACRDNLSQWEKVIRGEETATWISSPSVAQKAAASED
Experimental: (§1) Another, non radioactive, in-vitro assay was performed as follows • c) Phosphodiesterase (PDE) 2A and 10 Assay with Fluorescent Substrate Assay Principle:
(§2) The PDE reaction cleaves cAMP to AMP. The IMAP system (Molecular Device) using fluorescence polarization (FP) as detection principle was used to measure enzyme activity. A fluorescent labeled cAMP was used as substrate for the reaction, generating a labeled AMP. The fluorescent AMP binds specifically to the large M(III)-based nano-particles which reduces the rotational speed of the substrate and thus increases its polarization.
(§3) The inhibition of PDE 2A or 10 enzyme activity was assessed using IMAP-Phosphodiesterase-cAMP fluorescence labeled substrate (Molecular Devices, Order No. R7506), IMAP TR-FRET screening express (Molecular Devices, Order No. R8160, the TR-FRET component will not be used) and PDE 2A or PDE10 protein expressed upon baculovirus infection in SF9 cells.
(§4) All reactions were performed in 384 well plates, Perkin Elmer black optiplates and IMAP reaction buffer with 0.1% Tween20 (kit component)
(§5) Compounds were serial diluted in DMSO. With an intermediate dilution step with reaction buffer DMSO concentration was reduced to achieve 1% DMSO in the assay reaction. Setup of the assay started with 10 μl enzyme (˜10 ng/well, depending on prep. batch), 5 μl compound, reaction was started by addition of 5 μl labeled cAMP (30 nM, final concentration), immediately mixed for 15 seconds on a Eppendorf mixmate (2000 rpm) followed by an incubation at room temperature for 90 minutes in the dark. Reaction is stopped by adding of 60 μl binding buffer for FP/cAMP (kit component).
(§6) Each assay plate contained wells with vehicle controls (1% DMSO) for the measurement of non-inhibited reaction (=100% control) and wells without enzyme as 0% controls.

PDE 2A = PDE 2A (Homo sapiens (Human), UniProt O00408); test: PDE 2A assay with fluorescent substrate (IMAP, fluorescence polarization); format: biochemical; details: read-out: PDE2 IC50
Chain of PDE 2A (O00408 whole entry, species assumed): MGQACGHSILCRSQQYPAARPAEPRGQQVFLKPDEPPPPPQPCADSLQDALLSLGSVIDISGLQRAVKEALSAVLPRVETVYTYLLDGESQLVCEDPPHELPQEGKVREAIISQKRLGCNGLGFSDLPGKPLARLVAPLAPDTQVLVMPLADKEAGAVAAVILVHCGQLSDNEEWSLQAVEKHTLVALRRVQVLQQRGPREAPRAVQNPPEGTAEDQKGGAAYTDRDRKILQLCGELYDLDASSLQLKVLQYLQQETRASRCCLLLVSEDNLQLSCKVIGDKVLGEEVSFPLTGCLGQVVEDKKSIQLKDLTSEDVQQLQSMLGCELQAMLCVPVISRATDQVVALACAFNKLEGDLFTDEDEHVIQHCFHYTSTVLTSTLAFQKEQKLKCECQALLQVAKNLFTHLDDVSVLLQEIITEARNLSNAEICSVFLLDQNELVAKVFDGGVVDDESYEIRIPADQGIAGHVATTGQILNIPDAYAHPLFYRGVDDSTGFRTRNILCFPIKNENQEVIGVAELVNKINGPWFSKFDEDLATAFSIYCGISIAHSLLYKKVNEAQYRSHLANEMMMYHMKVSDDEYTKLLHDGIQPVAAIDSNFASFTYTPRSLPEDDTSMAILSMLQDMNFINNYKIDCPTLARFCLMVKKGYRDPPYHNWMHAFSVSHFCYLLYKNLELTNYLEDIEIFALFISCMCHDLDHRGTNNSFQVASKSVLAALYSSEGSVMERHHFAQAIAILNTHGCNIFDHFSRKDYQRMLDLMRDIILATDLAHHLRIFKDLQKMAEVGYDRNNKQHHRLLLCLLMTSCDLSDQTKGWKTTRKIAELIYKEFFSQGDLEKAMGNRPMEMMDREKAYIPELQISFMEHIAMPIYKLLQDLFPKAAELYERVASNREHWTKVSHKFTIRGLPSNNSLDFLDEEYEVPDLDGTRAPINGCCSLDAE
Experimental: as §1, §2, §3, §4, §5, §6

PDE 10A = PDE 10A (Homo sapiens (Human), UniProt Q9Y233); test: Radioactive PDE10 assay ([3H]cAMP SPA); format: biochemical
Chain of PDE 10A (Q9Y233 whole entry, species assumed): as the sequence (Q9Y233 whole entry, species assumed) above
Experimental: Into a 384 well plate (OptiPlate, white), the following components are pipetted (either manually or using automated pipetting devices): • 20 μl test-compound solution (test compound diluted in assay buffer at twofold the desired concentration) • +10 μl PDE 10A preparation (enzyme diluted in assay buffer to a concentration of 0.3 ng/μl protein) • +10 μl cAMP tracer (diluted in assay buffer to a concentration of 80 nM cAMP, specific activity ˜4 mCi/I)
After addition of all 3 components the plates are shortly spun and incubated at room temperature for 60 min. The reaction is stopped by the addition of 20 μl Yttrium SPA PDE Beads containing 18 mM zinc sulphate in water
PDE 10A protein is expressed upon baculovirus infection in SF9 cells. The cells have been incubated upon infection for ˜3 days and protein production was confirmed by Western Blot. The cells were collected by centrifugation and the pellet frozen in liquid nitrogen before it was resuspended in PBS containing 1% Triton X-100 and protease inhibitors. After 45 min incubation on ice, the cell debris was removed by centrifugation (13.000 rpm, 30 min).

hERG channel = hERG channel (Homo sapiens (Human), UniProt Q12809); test: hERG-channel assay (whole-cell patch clamp, transfected HEK293 cells); format: cell-based; details: HEK293 cells stably transfected with hERG cDNA, 35° C.
Chain of hERG channel (Q12809 whole entry): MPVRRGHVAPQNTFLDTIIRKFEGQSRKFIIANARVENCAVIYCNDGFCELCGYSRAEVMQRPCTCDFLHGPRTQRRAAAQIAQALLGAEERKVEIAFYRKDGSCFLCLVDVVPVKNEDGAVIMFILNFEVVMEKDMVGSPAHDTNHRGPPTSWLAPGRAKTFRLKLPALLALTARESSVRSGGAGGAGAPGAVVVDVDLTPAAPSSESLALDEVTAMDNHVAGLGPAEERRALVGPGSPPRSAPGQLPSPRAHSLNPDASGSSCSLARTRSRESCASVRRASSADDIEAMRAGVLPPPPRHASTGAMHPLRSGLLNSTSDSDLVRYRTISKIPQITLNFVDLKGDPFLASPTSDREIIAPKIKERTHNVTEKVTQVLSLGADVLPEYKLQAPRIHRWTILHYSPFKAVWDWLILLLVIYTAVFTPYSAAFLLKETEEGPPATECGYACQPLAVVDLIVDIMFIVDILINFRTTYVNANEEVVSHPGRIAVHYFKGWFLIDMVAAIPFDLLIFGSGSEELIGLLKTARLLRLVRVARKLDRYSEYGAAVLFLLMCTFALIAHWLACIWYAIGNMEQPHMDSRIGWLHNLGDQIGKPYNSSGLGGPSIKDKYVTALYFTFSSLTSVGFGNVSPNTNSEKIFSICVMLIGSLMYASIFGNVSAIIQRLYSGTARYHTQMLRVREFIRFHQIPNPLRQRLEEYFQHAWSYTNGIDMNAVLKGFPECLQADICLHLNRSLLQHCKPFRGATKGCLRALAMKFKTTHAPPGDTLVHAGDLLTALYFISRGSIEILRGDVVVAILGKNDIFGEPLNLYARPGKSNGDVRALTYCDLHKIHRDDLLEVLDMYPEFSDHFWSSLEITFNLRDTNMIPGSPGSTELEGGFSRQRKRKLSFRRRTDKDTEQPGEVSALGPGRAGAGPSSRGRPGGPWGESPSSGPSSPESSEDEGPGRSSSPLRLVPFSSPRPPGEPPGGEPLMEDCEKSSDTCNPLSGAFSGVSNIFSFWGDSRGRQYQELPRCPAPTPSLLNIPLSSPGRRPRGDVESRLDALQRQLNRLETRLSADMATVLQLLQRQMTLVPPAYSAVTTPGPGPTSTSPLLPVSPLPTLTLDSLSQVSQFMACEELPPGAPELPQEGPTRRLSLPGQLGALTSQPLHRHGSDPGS
Text: hERG (Human Ether-à-go-go-Related Gene)-Channel Assay
hERG channel inhibition of compounds of the present invention has been investigated as follows:
HEK (human embryonic kidney) 293 cells were stably transfected with hERG cDNA.
Cells were superfused with a bath solution containing (mM): NaCl (137), KCl (4.0), MgCl2 (1.0), CaCl2 (1.8), Glucose (10), HEPES (10), pH 7.4 with NaOH. Patch pipettes were made from borosilicate glass tubing using a horizontal puller and filled with pipette solution containing (mM): K-aspartate (130), MgCl2 (5.0), EGTA (5.0), K2ATP (4.0), HEPES (10.0), pH 7.2 with KOH. Resistance of the microelectrodes was in the range between 2 and 5 MΩ.
Stimulation and recording:
Membrane currents were recorded using an EPC-10 patch clamp amplifier and PatchMaster software. hERG-mediated membrane currents were recorded at 35° C., using the whole-cell configuration of the patch-clamp technique. […] During each inter-pulse interval 4 pulses scaled down by a factor of 0.2 were recorded for a P/n leak subtraction procedure. […]
The different concentrations of the test compound were applied sequentially on each of the different cells investigated. A steady state level of baseline current was measured for at least 6 sweeps prior to the application of the first test compound concentration. […]
Peak current amplitudes were measured 3 ms after the ramp to +40 mV. […]

[2] = Animal experiments and sample analysis: plasma, brain and CSF concentration; format: in vivo; details: rat, 2 h between administration and CSF sampling
Experimental: In-vivo Effect: Animal Experiments and Sample Analysis (CSF):
Test compounds were administered to animals (rat) different routes at doses of 10.0 or 5 μmol/kg, (both oral and intravenous). After compound administration, the animals were sacrificed in a CO2 chamber and CSF samples were carefully collected by puncture of the cisterna magna. Immediately after CSF sampling, blood was taken by heart puncture and brains were dissected out. Blood was collected in EDTA-coated microvettes and plasma was prepared by centrifugation. Concentration of the test compounds in plasma, CSF or brain homogenate was determined using HPLC-MS-MS.

Row | SMILES | IC50 (PDE10) [nM] | IC50 (PDE 2A) [nM] | other results
1 | Cc1nc2cccnc2n2c(-c3cc(OC4COCC4O)ccc3Cl)nnc12 (racemic) [Example 55] | 5300 | 80 | Half-life - t½ [1]: 2.17 h
2 | Cc1nc2ccc(C3CC3)nc2n2c(-c3cc(C4(O)CCOC4)ccc3Cl)nnc12 (racemic) [Example 97] | 2140 |  | half-life at 1 μM ([1]; human, pooled liver microsomes, pH 7.6, human liver microsomes, read-out: Half-life - t½): 0.85 h
3 | Cc1nc2ccc(C(F)(F)F)nc2n2c(-c3cc(OC4COCC4O)ccc3F)nnc12 (racemic) [Example 106] | 1940 | 160 | 
4 | Cc1nc2ccc(C3CC3)nc2n2c(-c3cc(OC4COCC4O)ccc3F)nnc12 (racemic) [Example 107] | 22 | 7 | 
5 | Cc1nc2ccc(C(F)(F)F)nc2n2c(-c3cc(OC4COCC4O)ccc3Cl)nnc12 (racemic) [Example 111] | 3980 | 22 | 
6 | Cc1nc2cccnc2n2c(-c3cc(C4(O)CCCOC4)ccc3Cl)nnc12 (racemic) [Example 112] | 7000 | 18 | 
7 | Cc1nc2ccc(C(F)(F)F)nc2n2c(-c3cc(C4(O)CCCOC4)ccc3Cl)nnc12 (racemic) [Example 114] |  | 22 | 
8 | Cc1nc2ccc(C(F)(F)F)nc2n2c(-c3cc(C4(O)CCOC4)ccc3Cl)nnc12 (racemic) [Example 115] |  | 39 | 
9 | Cc1nc2cccnc2n2c(-c3cc(OCCO)ccc3Cl)nnc12 [Example 15] |  |  | IC50 (PDE 10A): > 10000 nM
10 | Cc1nc2ccc(C3CC3)nc2n2c(-c3cc(OC[C@H](C)O)ccc3Cl)nnc12 [Example 35a] |  |  | Half-life - t½ [1]: 2.17 h; IC50 (hERG channel): > 10000 nM
11 | Cc1ccc2nc(C)c3nnc(-c4cc(CO)ccc4Cl)n3c2n1 [Example 60] |  | 19 | 
12 | Cc1ccc(C2(O)CCC2)cc1-c1nnc2c(C)nc3cccnc3n12 [Example 73] | 10000 |  | Half-life - t½ [1]: 2.17 h
13 | Cc1ccc(C(C)(C)O)cc1-c1nnc2c(C)nc3ccc(C4CC4)nc3n12 [Example 75] |  |  | Half-life - t½ [1]: 2.17 h; conc CSF [2]: 31 nM; conc brain [2]: 383 nM; conc plasma [2]: 1130 nM
14 | Cc1ccc(C2(O)CCOCC2)cc1-c1nnc2c(C)nc3ccc(C(F)(F)F)nc3n12 [Example 96b] | 10000 |  | 
15 | Cc1nc2ccc(C3CC3)nc2n2c(-c3cc(C4(O)CCCOC4)ccc3Cl)nnc12 (stereo not shown) [Example 113] | 3190 | 0.2 | 

Further lines, with some results ahead:

Row | IC50 (PDE10) [nM] | IC50 (PDE 2A) [nM] | SMILES | other results
16 | 1830 | 65 | Cc1nc2ccc(C(F)(F)F)nc2n2c(-c3cc(OC4COCC4O)ccc3Cl)nnc12 (single isomer, unassigned) [Example 111a] | 
17 | 2130 | 11 | Cc1nc2ccc(C(F)(F)F)nc2n2c(-c3cc(OC4COCC4O)ccc3Cl)nnc12 (single isomer, unassigned) [Example 111b] | 
18 | 2600 | 25 | Cc1nc2cccnc2n2c(-c3cc(C4(O)CCCOC4)ccc3Cl)nnc12 (single isomer, unassigned) [Example 112a] | 
19 | 2500 | 68 | Cc1nc2cccnc2n2c(-c3cc(C4(O)CCCOC4)ccc3Cl)nnc12 (single isomer, unassigned) [Example 112b] | 
20 |  | 9 | Cc1nc2ccc(C(F)(F)F)nc2n2c(-c3cc(C4(O)CCCOC4)ccc3Cl)nnc12 (single isomer, unassigned) [Example 114a] | 
21 | 10000 | 11 | Cc1nc2ccc(C(F)(F)F)nc2n2c(-c3cc(C4(O)CCCOC4)ccc3Cl)nnc12 (single isomer, unassigned) [Example 114b] | 
22 |  | 82 | Cc1nc2ccc(C(F)(F)F)nc2n2c(-c3cc(C4(O)CCOC4)ccc3Cl)nnc12 (single isomer, unassigned) [Example 115a] | 
23 | 10000 | 45 | Cc1nc2ccc(C(F)(F)F)nc2n2c(-c3cc(C4(O)CCOC4)ccc3Cl)nnc12 (single isomer, unassigned) [Example 115b] | 
24 | 10000 |  | Cc1nc2ccc(C(F)(F)F)nc2n2c(-c3cc(C(C)(C)O)ccc3Cl)nnc12 [Example 103b] | 
